In the NIST ThermoML archive (doi:10.1016/j.tca.2006.04.001):

Conditions: Liquid, Pycnometric method

CCCCCCCCCCCCCCCCCCC [nonadecane]
Conditions | specific volume [m3/kg]
305.45 K | 0.0013
307.55 K | 0.001303
309.55 K | 0.001304
311.65 K | 0.001304
313.65 K | 0.001307
315.75 K | 0.001309
317.75 K | 0.001311
319.85 K | 0.001313
321.95 K | 0.001316
323.95 K | 0.001319
326.05 K | 0.001322
328.05 K | 0.001321
330.15 K | 0.001324
332.25 K | 0.001327
334.25 K | 0.001329
336.35 K | 0.001331
338.35 K | 0.001335
340.45 K | 0.001337
342.55 K | 0.001339
344.55 K | 0.001338
346.65 K | 0.001344
348.65 K | 0.001345
350.75 K | 0.001346
352.85 K | 0.001348
354.85 K | 0.001353
356.95 K | 0.001355
358.95 K | 0.001357
361.05 K | 0.001359
363.15 K | 0.001362
365.15 K | 0.001365
367.25 K | 0.001368
369.25 K | 0.00137
371.35 K | 0.001373
373.45 K | 0.001374
375.45 K | 0.001376
377.55 K | 0.001379
379.55 K | 0.001382
381.65 K | 0.001385
383.75 K | 0.001389
385.75 K | 0.001391
387.85 K | 0.001394
389.85 K | 0.001396
391.95 K | 0.001401
393.95 K | 0.001404
396.05 K | 0.001405
398.15 K | 0.001405
400.15 K | 0.00141
402.25 K | 0.001412
404.25 K | 0.001415
406.35 K | 0.001418
408.45 K | 0.001422
410.45 K | 0.001426
412.55 K | 0.001429
414.55 K | 0.001434
416.65 K | 0.001436
418.75 K | 0.001439
420.75 K | 0.001439
422.85 K | 0.001442
424.85 K | 0.001447
426.95 K | 0.00145
429.05 K | 0.001452
431.05 K | 0.001456
433.15 K | 0.001457
435.15 K | 0.001461
437.25 K | 0.001464
439.35 K | 0.001466
441.35 K | 0.001469
443.45 K | 0.001475
445.45 K | 0.001479
447.55 K | 0.001481
449.65 K | 0.001485
451.65 K | 0.001485
453.75 K | 0.001492
455.75 K | 0.001495
457.85 K | 0.001498
459.95 K | 0.001504
461.95 K | 0.001506
464.05 K | 0.001508
466.05 K | 0.001514
468.15 K | 0.001514
470.25 K | 0.00152
472.25 K | 0.001523
474.35 K | 0.001527
476.35 K | 0.00153
478.45 K | 0.001533
480.45 K | 0.001536
482.55 K | 0.001543
484.65 K | 0.001546
486.65 K | 0.001549
488.75 K | 0.001549
490.75 K | 0.001557
492.85 K | 0.00156
494.95 K | 0.001563
496.95 K | 0.001566
499.05 K | 0.001569
501.05 K | 0.001575
503.15 K | 0.001578
505.25 K | 0.001582
507.25 K | 0.001586
509.35 K | 0.001592
511.35 K | 0.001594
513.45 K | 0.001599
515.55 K | 0.001604
517.55 K | 0.001609
519.65 K | 0.001609
521.65 K | 0.001615
523.75 K | 0.00162
525.85 K | 0.001625
531.35 K | 0.001634
533.25 K | 0.001639
535.25 K | 0.001641
537.15 K | 0.001646
539.15 K | 0.001649
541.05 K | 0.001653
543.05 K | 0.001659
544.95 K | 0.001663
546.85 K | 0.001667
548.85 K | 0.00167
550.75 K | 0.001676
552.75 K | 0.00168
554.65 K | 0.001683
556.65 K | 0.001687
558.55 K | 0.001692
560.45 K | 0.001697
562.45 K | 0.001702
564.35 K | 0.001707
566.35 K | 0.001711
568.25 K | 0.001717
570.25 K | 0.001722
572.15 K | 0.001725
574.05 K | 0.001732
576.05 K | 0.001737
